IC50 data for five compounds are collected here from BindingDB's records for doi:10.1021/jm00098a005 (Pfizer, 1992).

Test [1] in a line: Compound was evaluated for binding affinity towards 5-hydroxytryptamine 1D receptor in bovine caudate using [3H]- serotonin as radioligand.
Test [2] is described as follows: Compound was evaluated for binding affinity towards 5-hydroxytryptamine 1C receptor in pig choroid plexus using [3H]mesulergine as radioligand.

As a reminder, the IC50 is the concentration needed to halve the response being measured. Take `Cn1cc(CCN)c2c3c(ccc21)OCCC3`: the IC50 in test [1] was 4200 nM; in test [2], 100 nM. The like results for `CN(C)CCc1c[nH]c2ccc3c(c12)CCCO3` were, in that order, 220 nM and 150 nM. For `NCCc1c[nH]c2ccc3c(c12)CCCO3`, the IC50 in test [1] came to 110 nM; in test [2], 41 nM. For `CN(C)CCc1cn(C)c2ccc3c(c12)CCCO3`, in that order: 9300 nM and 100 nM. Compound `CN(C)CCc1c[nH]c2cc3c(cc12)OCCC3` gave an IC50 in test [2] of 2500 nM.
